The test system of one data set is TNF-α. The data set can be described thus: TNF-α mRNA expression in LPS-induced primary mouse fibroblasts. It counts as cell-based. The note with it: LPS 0.5 μg/mL 24 h; DLSKEPSISRE 0.05 mg/mL or metformin 1 mM. As for the experimental part: (§1) The study was carried out in primary mouse fibroblasts. Isolation of fibroblasts was carried out with techniques described earlier (See Example 1). Fibroblasts were cultured for 3 days. The following stressors were applied separately: bacterial lipopolysaccharides (LPS), high glucose in the incubation medium, and serum-free incubation medium.
(§2) LPS is a major outer surface membrane component that induces an inflammatory response in cells.
(§3) Isolation of mRNA, synthesis of the first strand of cDNA, and RT-PCR were performed with techniques described earlier (See Example 1). Expression levels of IRS2, TNF-α, IL-6, and GSK3p (WNT-pathway) were analyzed.
(§4) The study was carried out in primary mouse fibroblasts. Isolation of fibroblasts was carried out with techniques described earlier (See Example 1). Incubation of fibroblasts with 100 μM individual peptides and 0.5 μg/mL LPS was carried out for 24 hours. Each treatment group was represented in two biological replicates.
(§5) Isolation of mRNA, synthesis of the first strand of cDNA, and RT-PCR were performed with techniques described earlier (See Example 1). Expression levels of RPL27, TNF-α, IL-6, and IRS2 genes were analyzed.

The next data set concerns IL-6. As to the kind of experiment: IL-6 mRNA expression in LPS-induced primary mouse fibroblasts. The note with it: LPS 0.5 μg/mL 24 h; DLSKEPSISRE 0.05 mg/mL or metformin 1 mM. The data set is classed as cell-based. As to the method: as §1, §2, §3, §4, §5
For data set [1], the system named is C57BL/6 mice on a high-fat diet. As to the kind of experiment: Glucose tolerance test in mice on high-fat diet (HFD), acute administration. It counts as in vivo, mouse. The note with it: Metformin 250 mg/kg single p.o. As to the method:
A standard laboratory rodent pellet SNIFF RI/M-H V1534-30 (58% carbohydrates, 9% fat, 33% protein, 306 kcal/100 g) was given ad libitum to the control animals. For HFD groups, the high-fat feed was used. For 1 kg of feed, 610 g of ground SNIFF feed and 360 g of melted pork lard were taken, water (˜250 ml, 60-70° C.), 10 g of sodium chloride, 30 g of sodium glutamate were added. The mixture was brewed to a dough consistency, and food granules were formed. Then the granules were dried at 60-70° C. for 10-12 hours. The finished food for consumption was transferred to the animal-keeping area. The prepared food was stored at 4° C. for no more than 7 days. The approximate energy value of the HFD feed was 516 kcal/100 g (45% fat, 35% carbohydrates, 20% protein).
The metabolic syndrome was modeled by keeping animals on a HFD for 16 weeks. The control group was kept on a standard diet (STD) during this period. Animals had free access to feed and water located in the cage lid.
At stage 1 of the study, to replicate the metabolic syndrome, 25 mice were kept on a STD (group 1), 140 mice—on a HFD (groups 2-5). The animals' body weight was monitored weekly. By the end of the 16th week, mice with the maximum gain were selected among the animals kept on a HFD, and four groups of 25 animals were formed.
On the day of the experiment, animals from groups 3-5 were injected with the tested substances: one half of the group (12 or 13 animals) 2 hours before the experiment and the other half—12 hours. Group 1 and 2 (STD control and HFD control) were injected with saline (Table 5).
The administration volume was 10 ml/kg for drugs administered i.p., 6 μl/animal for i.n. administration and 5 ml/kg for drugs administered p.o.
The animals were deprived of food for 12 hours before the glucose tolerance test and euthanasia. Animals had free access to water.
The animals were deprived of food for 12 hours before the test. Baseline glucose level was measured at the end of fasting (0 min time point) in the blood drop taken from the tip of the tail by incision (with a needle) of the tail vein. The test substances were administered according to the treatment group. Half of the animals received drug injections 2 hours, and the other half—12 hours before the test. The glucose concentration in the blood was determined 15, 30, 60, 120 minutes after i.p. 40% glucose solution administration in a dose of […] with Satellite Express (Elta, Russia) test system.

The test system is the same in data set [2]. The data set can be described thus: Visceral fat weight and adipocyte histology after chronic administration in HFD mice. To be noted: four weeks. The data set is classed as in vivo, mouse. As for the experimental part:
(§6) Groups of 10 animals were formed from the existing groups from Stage 2, with similar mean body weight (Table 6). The animals' bodyweight was monitored three times a week, water, and feed consumption—weekly. After the last treatment, the animals were euthanized for necropsy and their blood collected. The internal organs were examined for the presence of macro damage and weighed. The adipose tissue surrounding the epididymis was evaluated as a marker of obesity in animals. For histological examination, samples of adipose tissue and liver tissue were fixed in 10% formalin solution for further histological analysis.
After necropsy, the following internal organs were weighed: adrenal glands, kidneys, liver, pancreas, heart, spleen, and testicles.
During necropsy, the body's external state, internal surfaces, the cranial cavity, chest, abdominal and pelvic cavities with organs and tissues located in them, the neck with organs and tissues, the skeleton, and the musculoskeletal system were examined. The organs and tissues were fixed in 10% formalin. […]
Microscopic analysis was performed using a DMLA Leica transmitted light microscope (Germany), a Photometrics Cool SNAP cf video camera (USA), and Mekos software (Russia). […] One hundred adipocytes were measured on sections of the visceral fat samples in 15-20 random fields of view.

The test system is the same in data set [3]. The data set can be described thus: Tolerability observations in HFD mice study. The data set is classed as in vivo, mouse. To be noted: metformin 250 mg/kg p.o. As for the experimental part: as §6
During necropsy, the body's external state, internal surfaces, the cranial cavity, chest, abdominal and pelvic cavities with organs and tissues located in them, the neck with organs and tissues, the skeleton, and the musculoskeletal system were examined. The organs and tissues were fixed in 10% formalin. Liver and adipose tissue samples were weighed and stored in 10% formalin for subsequent histological analysis.

The structures appear in SMILES notation.

As for `CN(C)C(=N)N=C(N)N` [Metformin], the “LPS-induced expression of TNF-α” value with TNF-α is on record as “similarly”. Besides, the “LPS-induced expression of IL-6” value in the data set with IL-6 is reported as “similarly”. For the same compound, the “AUC of glucose in GTT” value in data set [1] (2 h post-treatment) is 1808 ± 131 mmol/L/min; in data set [1] (12 h post-treatment), 1857 ± 149 mmol/L/min. The “glucose concentration in GTT” value in data set [1] (2 h post-treatment, 0 min (basal)) is 7.2 ± 0.374 mmol/L; in data set [1] (2 h post-treatment, 60 min after glucose) it was 15.55 ± 1.46 mmol/L; in data set [1] (2 h post-treatment, 120 min after glucose), 10.08 ± 0.875 mmol/L; in data set [1] (12 h post-treatment, 0 min), 7.0 ± 0.7 mmol/L; in data set [1] (12 h post-treatment, 60 min after glucose) it was 15.7 ± 1.8 mmol/L; in data set [1] (12 h post-treatment, 120 min after glucose) it was 11.2 ± 1.4 mmol/L. Also, the “decrease in average linear size of visceral fat adipocytes compared to HFD control” value in data set [2] (Metformin 250 mg/kg p.o.) was 31%. Besides, in data set [2] (EPSI 5 mg/kg i.p. and i.n., metformin 250 mg/kg p.o., vs HFD control), the “visceral fat (adipose tissue surrounding the epididymis) weight” value was “statistically significant decrease”. In addition, the “death of animals after administration” value in data set [3] is on record as 2 animals. Besides, the “deviations in the state of health observed after the first injection” value in data set [3] is “hunching, tremor, weight loss”.

Source of the values: patent US20250177473A1, “PEPTIDE REGULATORS OF METABOLISM” (Metabico, Inc., priority 2022, published 2025).
